From patent publication US20250195521A1 (Revolution Medicines, Inc., priority 2020, published 2025)
Like-named read-outs stand apart in the source and are kept apart here.

Columns and labels:
AsPC-1 (K-Ras G12D) [1] = assay: Potency assay: pERK; type: cell-based, human; settings: Homo sapiens, ASPC1, read-out: pERK EC50
How it was run: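 pERK decrease measured after 4 h compound treatment at 37 °C (10 three-fold dilutions, duplicate wells), by either fixed-cell In-Cell Western with DRAQ5 counterstain or AlphaLISA on lysates. Signal fitted against log concentration with a four-parameter model to give IC50.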

AsPC-1 (K-Ras G12D) [2] = assay: CellTiter-Glo cell viability assay, AsPC-1; type: cell-based, human; settings: Homo sapiens, ASPC1, 120 h, read-out: AsPC-1 Cell Viability IC50
How it was run: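 Luminescent viability readout on day 5 after direct compound addition to plated cells; plates sat ~30 min at room temperature before reading. Values expressed as percent of mean DMSO signal, curves fit with a four-parameter logistic model.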

KRAS G13D = KRAS G13D (Homo sapiens (Human), UniProt P01116+P62937, G13D); assay: Ras-Raf disruption/FRET/MOA assay, KRAS G13D; type: biochemical
KRAS G13D, sequence (P01116 other isoform, or with tags, fused parts or gaps G13D): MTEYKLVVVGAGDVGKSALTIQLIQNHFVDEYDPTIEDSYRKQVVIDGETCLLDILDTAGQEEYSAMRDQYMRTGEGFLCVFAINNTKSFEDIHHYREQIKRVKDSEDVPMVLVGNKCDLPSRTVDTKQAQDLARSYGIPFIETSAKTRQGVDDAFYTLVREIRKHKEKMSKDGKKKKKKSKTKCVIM
KRAS G13D, sequence (P62937 whole entry, the tested form may be a part): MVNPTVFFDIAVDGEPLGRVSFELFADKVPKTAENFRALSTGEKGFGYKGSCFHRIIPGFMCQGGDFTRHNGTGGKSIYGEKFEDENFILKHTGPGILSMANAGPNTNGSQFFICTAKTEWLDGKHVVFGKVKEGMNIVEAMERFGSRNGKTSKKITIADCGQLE
Source text: (§1) Disruption of B-Raf Ras-Binding Domain (BRAF^RBD) Interaction with K-Ras by Compounds of the Invention (Also Called a FRET Assay or an MOA Assay)
(§2) Note—The following protocol describes a procedure for monitoring disruption of K-Ras G12C (GMP-PNP) binding to BRAF^RBD by a compound of the invention. This protocol may also be executed substituting other Ras proteins or nucleotides, such as K-Ras G12D and K-Ras G13D.
(§3) The purpose of this biochemical assay was to measure the ability of test compounds to facilitate ternary complex formation between a nucleotide-loaded K-Ras isoform and Cyclophilin A; the resulting ternary complex disrupts binding to a BRAF^RBD construct, inhibiting K-Ras signaling through a RAF effector. Data is reported as IC50 values.
(§4) In assay buffer containing 25 mM HEPES pH 7.3, 0.002% Tween20, 0.1% BSA, 100 mM NaCl and 5 mM MgCl2, tagless Cyclophilin A, His6-K-Ras-GMPPNP, and GST-BRAF^RBD were combined in a 384-well assay plate at final concentrations of 25 μM, 12.5 nM, and 50 nM, respectively. Compound was present in plate wells as a 10-point 3-fold dilution series starting at a final concentration of 30 μM. After incubation at 25° C. for 3 hours, a mixture of anti-His Eu—W1024 and anti-GST allophycocyanin was then added to assay sample wells at final concentrations of 10 nM and 50 nM, respectively, and the reaction incubated for an additional 1.5 hours. […] Compounds that facilitate disruption of a K-Ras: RAF complex were identified as those eliciting a decrease in the TR-FRET ratio relative to DMSO control wells.

KRAS G12S = KRAS G12S (Homo sapiens (Human), UniProt P01116+P62937, G12S); assay: Ras-Raf disruption/FRET/MOA assay, KRAS G12S; type: biochemical
KRAS G12S, sequence (P01116 other isoform, or with tags, fused parts or gaps G12S): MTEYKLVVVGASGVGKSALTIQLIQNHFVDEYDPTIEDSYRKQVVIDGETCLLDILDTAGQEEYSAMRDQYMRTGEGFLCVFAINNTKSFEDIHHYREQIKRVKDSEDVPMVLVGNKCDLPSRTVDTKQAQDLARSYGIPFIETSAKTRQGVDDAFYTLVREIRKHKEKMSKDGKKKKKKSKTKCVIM
KRAS G12S, sequence (P62937 whole entry): as the sequence (P62937 whole entry, the tested form may be a part) above
Source text: as §1, §2, §3, §4

KRAS G13C = KRAS G13C (Homo sapiens (Human), UniProt P01116+P62937, G13C); assay: Ras-Raf disruption/FRET/MOA assay, KRAS G13C; type: biochemical
KRAS G13C, sequence (P01116 other isoform, or with tags, fused parts or gaps G13C): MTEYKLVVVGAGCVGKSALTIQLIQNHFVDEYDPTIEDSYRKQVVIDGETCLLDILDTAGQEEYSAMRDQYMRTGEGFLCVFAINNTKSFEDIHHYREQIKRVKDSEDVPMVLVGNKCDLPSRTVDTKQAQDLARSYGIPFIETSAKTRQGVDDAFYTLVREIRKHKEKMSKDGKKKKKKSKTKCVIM
KRAS G13C, sequence (P62937 whole entry): as the sequence (P62937 whole entry, the tested form may be a part) above
Source text: as §1, §2, §3, §4

KRAS G12V = KRAS G12V (Homo sapiens (Human), UniProt P01116+P62937, G12V); assay: Ras-Raf disruption/FRET/MOA assay, KRAS G12V; type: biochemical
KRAS G12V, sequence (P01116 other isoform, or with tags, fused parts or gaps G12V): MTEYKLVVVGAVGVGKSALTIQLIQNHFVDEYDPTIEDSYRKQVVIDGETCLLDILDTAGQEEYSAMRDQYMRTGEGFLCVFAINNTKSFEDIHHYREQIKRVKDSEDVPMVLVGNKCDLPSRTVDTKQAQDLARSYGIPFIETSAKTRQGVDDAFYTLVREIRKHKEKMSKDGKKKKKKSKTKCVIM
KRAS G12V, sequence (P62937 whole entry): as the sequence (P62937 whole entry, the tested form may be a part) above
Source text: as §1, §2, §3, §4

KRAS G12D = KRAS G12D (Homo sapiens (Human), UniProt P01116+P62937, G12D); assay: Ras-Raf disruption/FRET/MOA assay, KRAS G12D; type: biochemical
KRAS G12D, sequence (P01116 other isoform, or with tags, fused parts or gaps G12D): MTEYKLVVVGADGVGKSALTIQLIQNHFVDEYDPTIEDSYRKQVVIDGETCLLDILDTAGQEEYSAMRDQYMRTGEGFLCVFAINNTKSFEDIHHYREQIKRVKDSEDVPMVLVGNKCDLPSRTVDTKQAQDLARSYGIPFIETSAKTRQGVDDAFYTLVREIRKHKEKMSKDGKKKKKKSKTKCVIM
KRAS G12D, sequence (P62937 whole entry): as the sequence (P62937 whole entry, the tested form may be a part) above
Source text: as §1, §2, §3, §4

KRAS WT = KRAS WT (Homo sapiens (Human), UniProt P01116+P62937); assay: Ras-Raf disruption/FRET/MOA assay, KRAS WT; type: biochemical
KRAS WT, sequence (P01116 other isoform, or with tags, fused parts or gaps): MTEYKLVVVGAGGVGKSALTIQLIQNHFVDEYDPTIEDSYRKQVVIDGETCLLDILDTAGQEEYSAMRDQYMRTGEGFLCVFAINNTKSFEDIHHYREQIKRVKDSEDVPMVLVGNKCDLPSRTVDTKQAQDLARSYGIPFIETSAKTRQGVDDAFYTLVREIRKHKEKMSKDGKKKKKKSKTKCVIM
KRAS WT, sequence (P62937 whole entry): as the sequence (P62937 whole entry, the tested form may be a part) above
Source text: as §1, §2, §3, §4

KRAS G12C = KRAS G12C (Homo sapiens (Human), UniProt P01116+P62937, G12C); assay: Ras-Raf disruption/FRET/MOA assay, KRAS G12C; type: biochemical
KRAS G12C, sequence (P01116-2 other isoform, or with tags, fused parts or gaps G12C): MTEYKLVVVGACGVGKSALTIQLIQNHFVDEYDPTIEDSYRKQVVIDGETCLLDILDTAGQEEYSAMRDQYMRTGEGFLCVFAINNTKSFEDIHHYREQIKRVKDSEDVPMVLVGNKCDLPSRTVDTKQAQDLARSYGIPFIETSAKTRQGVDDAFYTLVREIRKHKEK
KRAS G12C, sequence (P62937 whole entry): as the sequence (P62937 whole entry, the tested form may be a part) above
Source text: as §1, §2, §3, §4

NRAS G12C = NRAS G12C (Homo sapiens (Human), UniProt P01111+P62937, G12C); assay: Ras-Raf disruption/FRET/MOA assay, NRAS G12C; type: biochemical
NRAS G12C, sequence (P01111 whole entry G12C): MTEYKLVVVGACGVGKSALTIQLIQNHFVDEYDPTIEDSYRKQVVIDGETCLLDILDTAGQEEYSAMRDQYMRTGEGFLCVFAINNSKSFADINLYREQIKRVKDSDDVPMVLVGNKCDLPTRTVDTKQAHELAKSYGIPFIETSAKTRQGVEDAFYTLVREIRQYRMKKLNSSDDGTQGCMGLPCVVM
NRAS G12C, sequence (P62937 whole entry): as the sequence (P62937 whole entry, the tested form may be a part) above
Source text: as §1, §2, §3, §4

[3] = read-out: KRAS G12C FRET data IC50
[4] = read-out: NRAS G12C FRET data IC50

| SMILES | EC50 (AsPC-1 (K-Ras G12D) [1]) | IC50 (AsPC-1 (K-Ras G12D) [2]) | IC50 (KRAS G13D) | IC50 (KRAS G12S) | IC50 (KRAS G13C) | IC50 (KRAS G12V) | IC50 (KRAS G12D) | IC50 (KRAS WT) | IC50 (KRAS G12C) | IC50 (NRAS G12C) | IC50 (KRAS G13D; read-out: KRAS G13D FRET IC50) | IC50 (KRAS G12S; read-out: KRAS G12S FRET IC50) | IC50 (KRAS G13C; read-out: KRAS G13C FRET IC50) | IC50 (KRAS G12V; read-out: KRAS G12V FRET IC50) | IC50 (KRAS G12D; read-out: KRAS G12D FRET IC50) | IC50 (KRAS WT; read-out: KRAS WT FRET IC50) | IC50 (KRAS G12C; [3]) | IC50 (NRAS G12C; [4]) |
| --- | --- | --- | --- | --- | --- | --- | --- | --- | --- | --- | --- | --- | --- | --- | --- | --- | --- | --- |
| CCn1c(-c2cnccc2COC)c2c3cc(ccc31)-c1cc(O)cc(c1)C[C@H](NC(=O)[C@H](C(C)C)N(C)C(=O)CN(C)C(=O)[C@H]1N[C@H]1C(=O)OC)C(=O)N1CCC[C@H](N1)C(=O)OCC(C)(C)C2 [Example 51] | < 5000 nM | > 10000 nM | 100 to 1000 nM | 100 to 1000 nM | 10 to 100 nM | 100 to 1000 nM | 100 to 1000 nM | 100 to 1000 nM | 10 to 100 nM | 100 to 1000 nM |  |  |  |  |  |  |  |  |
| CCn1c(-c2cnccc2COC)c2c3cc(ccc31)-c1cccc(c1)C[C@H](NC(=O)[C@H](C(C)C)N(C)C(=O)CCN=C=Nc1ccc(N(C)C)cc1)C(=O)N1CCC[C@H](N1)C(=O)OCC(C)(C)C2 [Example 66] |  |  |  |  |  |  |  |  |  |  | 1000 to 10000 nM | 1000 to 10000 nM | 100 to 1000 nM | 1000 to 10000 nM | 1000 to 10000 nM | 1000 to 10000 nM | 100 to 1000 nM | 100 to 1000 nM |
| CCn1c(-c2cnccc2COC)c2c3cc(ccc31)-c1cccc(c1)C[C@H](NC(=O)[C@H](C(C)C)N(C)C(=O)CCN=C=Nc1ccc(N3CCOCC3)cc1)C(=O)N1CCC[C@H](N1)C(=O)OCC(C)(C)C2 [Example 67] |  |  |  |  |  |  |  |  |  |  | 1000 to 10000 nM | 1000 to 10000 nM | 1000 to 10000 nM | 1000 to 10000 nM | 1000 to 10000 nM | 1000 to 10000 nM | 100 to 1000 nM | 100 to 1000 nM |
| CCn1c(-c2cnccc2COC)c2c3cc(ccc31)-c1cccc(c1)C[C@H](NC(=O)[C@H](C(C)C)N(C)C(=O)CCN=C=NCc1c(OC)cccc1OC)C(=O)N1CCC[C@H](N1)C(=O)OCC(C)(C)C2 [Example 75] |  |  |  |  |  |  |  |  |  |  | > 10000 nM | > 10000 nM | > 10000 nM | 1000 to 10000 nM | > 10000 nM | > 10000 nM | 100 to 1000 nM | 100 to 1000 nM |
| CCn1c(-c2cnccc2COC)c2c3cc(ccc31)-c1cccc(c1)C[C@H](NC(=O)[C@H](C(C)C)N1CC[C@@H](CN=C=NCCOC)C1)C(=O)N1CCC[C@H](N1)C(=O)OCC(C)(C)C2 [Example 80] |  |  |  |  |  |  |  |  |  |  | > 10000 nM | 1000 to 10000 nM | 1000 to 10000 nM | 1000 to 10000 nM | 1000 to 10000 nM | 1000 to 10000 nM | 100 to 1000 nM | 100 to 1000 nM |
| CCn1c(-c2cnccc2COC)c2c3cc(ccc31)-c1cccc(c1)C[C@H](NC(=O)[C@H](C(C)C)N1CC[C@H](CN=C=Nc3ccc(OC)cc3)C1)C(=O)N1CCC[C@H](N1)C(=O)OCC(C)(C)C2 [Example 81] |  |  |  |  |  |  |  |  |  |  | > 10000 nM | > 10000 nM | > 10000 nM | 1000 to 10000 nM | > 10000 nM | > 10000 nM | 100 to 1000 nM | 1000 to 10000 nM |
| CCn1c(-c2cnccc2COC)c2c3cc(ccc31)-c1cc(O)cc(c1)C[C@H](NC(=O)[C@H](C(C)C)N(C)C(=O)CN(C)C(=O)[C@H]1N[C@H]1c1ccc(OC)cc1)C(=O)N1CCC[C@H](N1)C(=O)OCC(C)(C)C2 [Example 93] | < 5000 nM | > 10000 nM | 100 to 1000 nM | 10 to 100 nM | 10 to 100 nM | 10 to 100 nM | 100 to 1000 nM | 10 to 100 nM | 10 to 100 nM | 10 to 100 nM |  |  |  |  |  |  |  |  |
